Reference: the NIST ThermoML archive (doi:10.1021/je0496140)

Assay: xn = mol fraction of the nth substance listed
Settings: 101.33 kPa, Liquid

CCCCCl [1-chlorobutane] + CC(C)(C)O
Settings | mass density [kg/m3] | viscosity [mPa·s]
298.15 K, x2 = 0.0966 | – | 0.442
298.15 K, x2 = 0.2 | – | 0.476
298.15 K, x2 = 0.2904 | – | 0.517
298.15 K, x2 = 0.3901 | – | 0.577
298.15 K, x2 = 0.4897 | – | 0.662
298.15 K, x2 = 0.5956 | – | 0.799
298.15 K, x2 = 0.6919 | – | 1
298.15 K, x2 = 0.8008 | – | 1.425
298.15 K, x2 = 0.8889 | – | 2.112
303.15 K, x2 = 0.0924 | 864.09 | –
303.15 K, x2 = 0.0966 | – | 0.419
303.15 K, x2 = 0.1915 | 853.49 | –
303.15 K, x2 = 0.2 | – | 0.449
303.15 K, x2 = 0.2758 | 844.75 | –
303.15 K, x2 = 0.2904 | – | 0.486
303.15 K, x2 = 0.38 | 834.23 | –
303.15 K, x2 = 0.3901 | – | 0.537
303.15 K, x2 = 0.481 | 824.02 | –
303.15 K, x2 = 0.4897 | – | 0.611
303.15 K, x2 = 0.5729 | 814.91 | –
303.15 K, x2 = 0.5956 | – | 0.727
303.15 K, x2 = 0.6749 | 804.89 | –
303.15 K, x2 = 0.6919 | – | 0.892
303.15 K, x2 = 0.7778 | 795.09 | –
303.15 K, x2 = 0.8008 | – | 1.232
303.15 K, x2 = 0.8889 | – | 1.752
303.15 K, x2 = 0.8938 | 784.46 | –
308.15 K, x2 = 0.0966 | – | 0.397
308.15 K, x2 = 0.0969 | 857.96 | –
308.15 K, x2 = 0.1912 | 847.87 | –
308.15 K, x2 = 0.2 | – | 0.423
308.15 K, x2 = 0.2786 | 838.9 | –
308.15 K, x2 = 0.2904 | – | 0.456
308.15 K, x2 = 0.3839 | 828.23 | –
308.15 K, x2 = 0.3901 | – | 0.502
308.15 K, x2 = 0.4811 | 818.5 | –
308.15 K, x2 = 0.4897 | – | 0.565
308.15 K, x2 = 0.5844 | 808.35 | –
308.15 K, x2 = 0.5956 | – | 0.664
308.15 K, x2 = 0.6849 | 798.55 | –
308.15 K, x2 = 0.6919 | – | 0.801
308.15 K, x2 = 0.7881 | 788.78 | –
308.15 K, x2 = 0.8008 | – | 1.081
308.15 K, x2 = 0.8889 | – | 1.474
308.15 K, x2 = 0.8957 | 779.05 | –
313.15 K, x2 = 0.093 | 852.6 | –
313.15 K, x2 = 0.0966 | – | 0.378
313.15 K, x2 = 0.1869 | 842.51 | –
313.15 K, x2 = 0.2 | – | 0.4
313.15 K, x2 = 0.2685 | 834.13 | –
313.15 K, x2 = 0.2904 | – | 0.428
313.15 K, x2 = 0.3778 | 823.11 | –
313.15 K, x2 = 0.3901 | – | 0.468
313.15 K, x2 = 0.4841 | 812.56 | –
313.15 K, x2 = 0.4897 | – | 0.525
313.15 K, x2 = 0.5777 | 803.43 | –
313.15 K, x2 = 0.5956 | – | 0.608
313.15 K, x2 = 0.6796 | 793.58 | –
313.15 K, x2 = 0.6919 | – | 0.724
313.15 K, x2 = 0.7766 | 784.47 | –
313.15 K, x2 = 0.8008 | – | 0.947
313.15 K, x2 = 0.8889 | – | 1.255
313.15 K, x2 = 0.8972 | 773.57 | –
318.15 K, x2 = 0.0918 | 847.04 | –
318.15 K, x2 = 0.0966 | – | 0.359
318.15 K, x2 = 0.1839 | 837.08 | –
318.15 K, x2 = 0.2 | – | 0.38
318.15 K, x2 = 0.2674 | 828.47 | –
318.15 K, x2 = 0.2904 | – | 0.404
318.15 K, x2 = 0.3797 | 817.22 | –
318.15 K, x2 = 0.3901 | – | 0.439
318.15 K, x2 = 0.4809 | 807.29 | –
318.15 K, x2 = 0.4897 | – | 0.488
318.15 K, x2 = 0.5799 | 797.62 | –
318.15 K, x2 = 0.5956 | – | 0.56
318.15 K, x2 = 0.678 | 788.38 | –
318.15 K, x2 = 0.6919 | – | 0.658
318.15 K, x2 = 0.7833 | 778.42 | –
318.15 K, x2 = 0.8008 | – | 0.841
318.15 K, x2 = 0.8889 | – | 1.083
318.15 K, x2 = 0.8905 | 768.84 | –
